Assay results reported in PubChem BioAssay (NCI).
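Assay format: 96-well plates, 48-hour exposure. GI50 = concentration required for 50% inhibition of growth. TGI denotes the concentration required for complete inhibition of growth.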

Key:
Assay in all cases: inhibition of tumour cell growth, NCI panel, 48 h
EKVX NSCLC = tested on: EKVX NSCLC
SK-OV-3 ovarian = tested on: SK-OV-3 ovarian
T-47D breast = tested on: T-47D breast
NCI-H522 lung = tested on: NCI-H522 lung
RXF 393 renal = tested on: RXF 393 renal
DU-145 prostate = tested on: DU-145 prostate
RPMI-8226 leukemia = tested on: RPMI-8226 leukemia
ACHN renal = tested on: ACHN renal
MCF7 breast = tested on: MCF7 breast
OVCAR-8 ovarian = tested on: OVCAR-8 ovarian
SF-295 CNS = tested on: SF-295 CNS

SMILES | TGI (EKVX NSCLC) [µM] | TGI (SK-OV-3 ovarian) [µM] | TGI (T-47D breast) [µM] | TGI (NCI-H522 lung) [µM] | TGI (RXF 393 renal) [µM] | TGI (DU-145 prostate) [µM] | TGI (RPMI-8226 leukemia) [µM] | TGI (ACHN renal) [µM] | TGI (MCF7 breast) [µM] | TGI (OVCAR-8 ovarian) [µM] | TGI (SF-295 CNS) [µM] | GI50 (EKVX NSCLC) [µM] | GI50 (SK-OV-3 ovarian) [µM] | GI50 (NCI-H522 lung) [µM] | GI50 (RXF 393 renal) [µM] | GI50 (DU-145 prostate) [µM] | GI50 (RPMI-8226 leukemia) [µM] | GI50 (ACHN renal) [µM] | GI50 (MCF7 breast) [µM] | GI50 (SF-295 CNS) [µM]
O=c1[nH]c(-c2ccc(Cl)cc2)cc2ccsc12 | > 100 | 77.9 | 59.9 | > 100 | > 100 | 6.68 | 19.1 | > 100 | > 100 | > 100 | 23.4 |  |  |  |  |  |  |  |  | 
CCOC(=O)C1=C(C)N(c2ccc(Cl)cc2)C2(O)C=CC(Nc3ccc(Cl)cc3)=C3C(=O)N(c4ccccc4)C(=O)C312 (configuration not stated) |  | 24.9 | 19.4 | 5.25 |  | 17.8 | 4.13 | 20 | 9.3 | 18.1 | 13.8 |  |  |  |  |  |  |  |  | 
COc1cccc2c1C(=O)c1c(O)c3c(c(O)c1C2=O)CC(O)(C(C)=O)CC3O (configuration not stated) | 20.6 | 36.9 |  | 3.09 | 18.5 |  | 16.6 |  | 16.2 | 10.6 | 19.5 |  |  |  |  |  |  |  |  | 
CN1CCN(Cn2nc(-c3cc(F)c(Cl)cc3Cl)oc2=S)CC1 | > 100 | > 100 | 27 | > 100 | 93.8 | > 100 | 50.9 | > 100 | > 100 |  | > 100 | > 100 | 56.9 | 90.1 | 32.5 | 41.4 | 22.7 | 34.6 | 30.2 | 42.4
